Experimental data published in patent US10689398B2, “OXA-Diazaspiro compounds having activity against pain” (ESTEVE PHARMACEUTICALS, S.A., priority 2015, dated 2020).

Biological target: human σ1 receptor (Homo sapiens (Human), UniProt Q99720)
Assay: Human σ1 receptor radioligand assay
Format: binding
Conditions: transfected HEK-293 membranes, [3H](+)-pentazocine radioligand
Protocol: Human σ1 Receptor Radioligand Assay
To investigate binding properties of test compounds to human σ1 receptor, transfected HEK-293 membranes and [^3H](+)-pentazocine (Perkin Elmer, NET-1056), as the radioligand, were used. The assay was carried out with 7 μg of membrane suspension, 5 nM of [^3H](+)-pentazocine in either absence or presence of either buffer or 10 μM Haloperidol for total and non-specific binding, respectively. Binding buffer contained Tris-HCl 50 mM at pH 8. Plates were incubated at 37° C. for 120 minutes. After the incubation period, the reaction mix was then transferred to MultiScreen HTS, FC plates (Millipore), filtered and plates were washed 3 times with ice-cold 10 mM Tris-HCL (pH7.4). Filters were dried and counted at approximately 40% efficiency in a MicroBeta scintillation counter (Perkin-Elmer) using EcoScint liquid scintillation cocktail

Chain of human σ1 receptor (Q99720 whole entry): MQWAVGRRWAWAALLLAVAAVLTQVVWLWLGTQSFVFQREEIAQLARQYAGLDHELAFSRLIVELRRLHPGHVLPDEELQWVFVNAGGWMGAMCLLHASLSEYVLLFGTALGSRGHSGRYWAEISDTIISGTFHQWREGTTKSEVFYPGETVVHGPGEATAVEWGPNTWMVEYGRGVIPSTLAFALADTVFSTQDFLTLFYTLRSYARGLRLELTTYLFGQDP

Row | SMILES | Ki [nM]
1 | CCN1C[C@]2(CCCN(CCC(C)C)CC2)O[C@H](C)C1=O [Example 47, (2R,6R)-4-ethyl-9-isopentyl-2-methyl-1-oxa-4,9-diazaspiro[5.6]dodecan-3-one] | ≥ 500
2 | CCN1C[C@@]2(CCCN(CCC(C)C)CC2)O[C@@H](C)C1=O [Example 48, (2S,6S)-4-ethyl-9-isopentyl-2-methyl-1-oxa-4,9-diazaspiro[5.6]dodecan-3-one] | ≥ 500
3 | CCN1C[C@]2(CCCN(CCC(C)C)CC2)O[C@@H](C)C1=O [Example 49, (2S,6R)-4-ethyl-9-isopentyl-2-methyl-1-oxa-4,9-diazaspiro[5.6]dodecan-3-one] | ≥ 500
4 | CC(C)OCCN1CCCC2(CC1)CN(C(=O)c1ccccc1)CC(C)(C)O2 (centres unmarked) [Example 50, (9-(2-isopropoxyethyl)-2,2-dimethyl-1-oxa-4,9-diazaspiro[5.6]dodecan-4-yl)(phenyl)methanone] | ≥ 500
5 | O=C(c1ccccc1)N1CC2(CC2)OC2(CCCN(Cc3ccccc3)C2)C1 (centres unmarked) [Example 55, (7-benzyl-4-oxa-7,12-diazadispiro[2.1.5.3]tridecan-12-yl)(phenyl)methanone] | ≥ 500
6 | O=C(c1ccccc1)N1CC2(CCCN(Cc3ccccc3)CC2)OC2(CC2)C1 (centres unmarked) [Example 56, (8-benzyl-4-oxa-8,13-diazadispiro[2.1.6.3]tetradecan-13-yl)(phenyl)methanone] | < 100
7 | CCN1CC2(CCCN(Cc3ccccc3)CC2)OC(C)(C)C1=O (centres unmarked) [Example 57, 9-benzyl-4-ethyl-2,2-dimethyl-1-oxa-4,9-diazaspiro[5.6]dodecan-3-one] | < 100
8 | CCN1CC2(CCCN(Cc3ccc(C#N)cc3)CC2)OC(C)(C)C1=O (centres unmarked) [Example 58, 4-((4-ethyl-2,2-dimethyl-3-oxo-1-oxa-4,9-diazaspiro[5.6]dodecan-9-yl)methyl)benzonitrile] | ≥ 500
9 | CCN1C[C@@]2(CCCN(Cc3ccccc3)CC2)O[C@H](C)C1=O [Example 59, (2R,6S)-9-benzyl-4-ethyl-2-methyl-1-oxa-4,9-diazaspiro[5.6]dodecan-3-one] | ≥ 500
10 | CCN1C[C@]2(CCCN(Cc3ccccc3)CC2)O[C@H](C)C1=O [Example 60, (2R,6R)-9-benzyl-4-ethyl-2-methyl-1-oxa-4,9-diazaspiro[5.6]dodecan-3-one] | ≥ 500
11 | CCN1C[C@@]2(CCCN(Cc3ccccc3)CC2)O[C@@H](C)C1=O [Example 61, (2S,6S)-9-benzyl-4-ethyl-2-methyl-1-oxa-4,9-diazaspiro[5.6]dodecan-3-one] | ≥ 500
12 | CCN1C[C@]2(CCCN(Cc3ccccc3)CC2)O[C@@H](C)C1=O [Example 62, (2S,6R)-9-benzyl-4-ethyl-2-methyl-1-oxa-4,9-diazaspiro[5.6]dodecan-3-one] | ≥ 500
13 | CCN1C[C@@]2(CCCN(Cc3ccc(F)cc3)CC2)O[C@H](C)C1=O [Example 63, (2R,6S)-4-ethyl-9-(4-fluorobenzyl)-2-methyl-1-oxa-4,9-diazaspiro[5.6]dodecan-3-one] | ≥ 500
14 | CCN1C[C@]2(CCCN(Cc3ccc(F)cc3)CC2)O[C@H](C)C1=O [Example 64, (2R,6R)-4-ethyl-9-(4-fluorobenzyl)-2-methyl-1-oxa-4,9-diazaspiro[5.6]dodecan-3-one] | ≥ 500
15 | CCN1C[C@@]2(CCCN(Cc3ccc(F)cc3)CC2)O[C@@H](C)C1=O [Example 65, (2S,6S)-4-ethyl-9-(4-fluorobenzyl)-2-methyl-1-oxa-4,9-diazaspiro[5.6]dodecan-3-one] | ≥ 500
16 | CCN1C[C@]2(CCCN(Cc3ccc(F)cc3)CC2)O[C@@H](C)C1=O [Example 66, (2S,6R)-4-ethyl-9-(4-fluorobenzyl)-2-methyl-1-oxa-4,9-diazaspiro[5.6]dodecan-3-one] | ≥ 500

Row | SMILES | Ki [nM]
17 | CCN1C[C@@]2(CCCN(Cc3ccc(C#N)cc3)CC2)O[C@H](C)C1=O [Example 67, 4-(((2R,6S)-4-ethyl-2-methyl-3-oxo-1-oxa-4,9-diazaspiro[5.6]dodecan-9-yl)methyl)benzonitrile] | ≥ 500
18 | CCN1C[C@]2(CCCN(Cc3ccc(C#N)cc3)CC2)O[C@H](C)C1=O [Example 68, 4-(((2R,6R)-4-ethyl-2-methyl-3-oxo-1-oxa-4,9-diazaspiro[5.6]dodecan-9-yl)methyl)benzonitrile] | ≥ 500
19 | CCN1C[C@@]2(CCCN(Cc3ccc(C#N)cc3)CC2)O[C@@H](C)C1=O [Example 69, 4-(((2S,6S)-4-ethyl-2-methyl-3-oxo-1-oxa-4,9-diazaspiro[5.6]dodecan-9-yl)methyl)benzonitrile] | ≥ 500
20 | CCN1C[C@]2(CCCN(Cc3ccc(C#N)cc3)CC2)O[C@@H](C)C1=O [Example 70, 4-(((2S,6R)-4-ethyl-2-methyl-3-oxo-1-oxa-4,9-diazaspiro[5.6]dodecan-9-yl)methyl)benzonitrile] | ≥ 500
21 | CN1CC2(CCCN(Cc3ccccc3)CC2)OC2(CC2)C1=O (centres unmarked) [Example 71, 8-benzyl-13-methyl-4-oxa-8,13-diazadispiro[2.1.6.3]tetradecan-14-one] | ≥ 500
22 | CN1CC2(CCCN(Cc3ccc(F)cc3)CC2)OC2(CC2)C1=O (centres unmarked) [Example 72, 8-(4-fluorobenzyl)-13-methyl-4-oxa-8,13-diazadispiro[2.1.6.3]tetradecan-14-one] | ≥ 500
23 | CN1CC2(CCCN(Cc3ccc(C#N)cc3)CC2)OC2(CC2)C1=O (centres unmarked) [Example 73, 4-((13-methyl-14-oxo-4-oxa-8,13-diazadispiro[2.1.6.3]tetradecan-8-yl)methyl)benzonitrile] | ≥ 500
24 | CCN1CC2(CN(CC(C)(C)C)C2)O[C@@H](C)C1=O [Example 74, (S)-8-ethyl-6-methyl-2-neopentyl-5-oxa-2,8-diazaspiro[3.5]nonan-7-one] | ≥ 500
25 | CCN1CC2(CN(CC(C)(C)C)C2)O[C@H](C)C1=O [Example 75, (R)-8-ethyl-6-methyl-2-neopentyl-5-oxa-2,8-diazaspiro[3.5]nonan-7-one] | ≥ 500
26 | CC(C)N1CC2(CN(CC(C)(C)C)C2)O[C@@H](C)C1=O [Example 76, (S)-8-isopropyl-6-methyl-2-neopentyl-5-oxa-2,8-diazaspiro[3.5]nonan-7-one] | ≥ 500
27 | CC(C)N1CC2(CN(CC(C)(C)C)C2)O[C@H](C)C1=O [Example 77, (R)-8-isopropyl-6-methyl-2-neopentyl-5-oxa-2,8-diazaspiro[3.5]nonan-7-one] | ≥ 500
28 | c1ccc(CN2CCCC3(C2)CN(Cc2ccccc2)CC2(CC2)O3)cc1 (centres unmarked) [Example 78, 7,12-dibenzyl-4-oxa-7,12-diazadispiro[2.1.5.3]tridecane] | < 100
29 | c1ccc(CCN2CCCC3(C2)CN(Cc2ccccc2)CC2(CC2)O3)cc1 (centres unmarked) [Example 79, 12-benzyl-7-phenethyl-4-oxa-7,12-diazadispiro[2.1.5.3]tridecane] | < 100
30 | CC(C)CCN1CCCC2(C1)CN(Cc1ccccc1)CC1(CC1)O2 (centres unmarked) [Example 80, 12-benzyl-7-isopentyl-4-oxa-7,12-diazadispiro[2.1.5.3]tridecane] | < 100
31 | CC(C)CN1CCCC2(C1)CN(Cc1ccccc1)CC1(CC1)O2 (centres unmarked) [Example 81, 12-benzyl-7-isobutyl-4-oxa-7,12-diazadispiro[2.1.5.3]tridecane] | < 100
32 | c1ccc(CN2CCCC3(CC2)CN(Cc2ccccc2)CC2(CC2)O3)cc1 (centres unmarked) [Example 82, 8,13-dibenzyl-4-oxa-8,13-diazadispiro[2.1.6.3]tetradecane] | < 100
